From article PMC10940605, “Design, synthesis and in vitro anticancer activity of some new lomefloxacin derivatives” (Scientific Reports, 2024)

Key:
[1] = tested on: BT-549; assay: NCI-60 SRB screen; type: cell-based; details: Homo sapiens; BT-549, 10^–5 Molar; read-out: Percent growth inhibition
Method: (§1) All newly synthesized compounds were selected and screened for anticancer activity against 60 human cancer cell lines representing 9 types of tumors including leukemia, melanoma, lung, colon, CNS, ovarian, renal, prostate, and breast cancers at the National Cancer Institute (NCI), Bethesda, USA. Screening was performed utilizing a single dose (10^−5 M concentration) and cells were incubated for 48 h. The end point was determined using sulforhodamine B (SRB) dye.
(§2) In this study, all the 16 newly synthesized compounds were submitted to the National Cancer Institute (USA) for anticancer evaluation and were selected and evaluated using 60 different human tumor cell lines representing lung, colon, CNS, ovarian, renal, prostate, breast cancers as well as leukemia and melanoma. A single dose (10^–5 Molar) was used for the initial screening for evaluation of anticancer activity. The 60 human cancer cell lines were provided by the national cancer institute biomedical research campus in Frederick, Maryland.
(§3) 60 different human cancer cell lines were utilized to screen the newly synthesized compounds for anticancer activity according to the previously reported standard procedure[24]–[26] as follows: • 96 well microtiter plates were used to inoculate the cells at […] ranging from 4000–5000 cells/well depending on the replication time of individual cell lines. Roswell Park Memorial Institute culture medium (RPMI 1640 medium) containing 2 mM L-glutamine and fetal bovine serum was used to grow the cells at 37 °C, 5% CO2, 95% air and 100% relative humidity for 24 h. • Fixation of cells in two plates of each cell line in situ was done using trichloroacetic acid (TCA). This represented the measurement of cell population at the time of drug addition (Tz). • Dimethyl sulfoxide (DMSO) was used to dissolve the synthesized compounds at 400-fold the desired final maximum concentration and frozen prior to use. This frozen concentrate was melted and diluted to twice the final concentration with complete medium containing 50 µg/mL gentamycin at time of drug addition. • The final compound concentration was obtained by adding 100 µL of the synthesized compounds to the appropriate microtiter wells already containing 100 µL followed by incubation of the plates at 37 °C, 5% CO2, 95% air and 100% relative humidity for 48 h. • Fixation of the cells was achieved by gentle addition of 50 µL of cold 50% (w/v) TCA followed by incubation for 60 min at 4 °C. The supernatant was then discarded and the plates are washed 5 times with tap water and air dried. • Sulphorhodamine B (SRB) solution (100 µL) at 0.4% (w/v) in 1% acetic acid was added to each plate followed by incubation for 10 min at room temperature. The unbound dye was then removed by washing five times with 1% acetic acid and plates were air dried. • Dissolution of the bound stain was done using […] trizma base and the absorbance was read at […] wavelength using an automated plate reader. • The percentage growth inhibition was calculated as follows: Ti-Tz/C-Tz×100forconcentrationswhichTi≥Tz Ti-Tz/Tz×100forconcentrationswhichTi<Tz • Time zero (Tz) • Control growth (C) • Test growth in the presence of drug (Ti)

[2] = tested on: CAKI-1; assay: NCI-60 SRB screen; type: cell-based; details: Homo sapiens; CAKI-1, 10^–5 Molar; read-out: Percent growth inhibition
Method: as §1, §2, §3

[3] = tested on: HS 578T; assay: NCI-60 SRB screen; type: cell-based; details: Homo sapiens, 10^–5 Molar, read-out: Percent growth inhibition
Method: as §1, §2, §3

[4] = tested on: LOX IMVI; assay: NCI-60 SRB screen; type: cell-based; details: Homo sapiens, 10^–5 Molar, read-out: Percent growth inhibition
Method: as §1, §2, §3

[5] = tested on: MCF7; assay: NCI-60 SRB screen; type: cell-based; details: Homo sapiens; MCF7, 10^–5 Molar; read-out: Percent growth inhibition
Method: as §1, §2, §3

[6] = tested on: MDA-MB-231/ATCC; assay: NCI-60 SRB screen; type: cell-based; details: Homo sapiens, 10^–5 Molar, read-out: Percent growth inhibition
Method: as §1, §2, §3

[7] = tested on: MDA-MB-435; assay: NCI-60 SRB screen; type: cell-based; details: Homo sapiens; MDA-MB-435, 10^–5 Molar; read-out: Percent growth inhibition
Method: as §1, §2, §3

[8] = tested on: NCI-H522; assay: NCI-60 SRB screen; type: cell-based; details: Homo sapiens; NCI-H522, 10^–5 Molar; read-out: Percent growth inhibition
Method: as §1, §2, §3

[9] = tested on: NCI/ADR-RES; assay: NCI-60 SRB screen; type: cell-based; details: Homo sapiens, 10^–5 Molar, read-out: Percent growth inhibition
Method: as §1, §2, §3

[10] = tested on: OVCAR-4; assay: NCI-60 SRB screen; type: cell-based; details: Homo sapiens; OVCAR-4, 10^–5 Molar; read-out: Percent growth inhibition
Method: as §1, §2, §3

[11] = tested on: PC-3; assay: NCI-60 SRB screen; type: cell-based; details: Homo sapiens; PC-3, 10^–5 Molar; read-out: Percent growth inhibition
Method: as §1, §2, §3

[12] = tested on: SF-539; assay: NCI-60 SRB screen; type: cell-based; details: Homo sapiens; SF-539, 10^–5 Molar; read-out: Percent growth inhibition
Method: as §1, §2, §3

[13] = tested on: SK-MEL-2; assay: NCI-60 SRB screen; type: cell-based; details: Homo sapiens; SK-MEL-2, 10^–5 Molar; read-out: Percent growth inhibition
Method: as §1, §2, §3

[14] = tested on: SNB-19; assay: NCI-60 SRB screen; type: cell-based; details: Homo sapiens; SNB-19, 10^–5 Molar; read-out: Percent growth inhibition
Method: as §1, §2, §3

[15] = tested on: SNB-75; assay: NCI-60 SRB screen; type: cell-based; details: Homo sapiens; SNB-75, 10^–5 Molar; read-out: Percent growth inhibition
Method: as §1, §2, §3

[16] = tested on: SW-620; assay: NCI-60 SRB screen; type: cell-based; details: Homo sapiens; SW-620, 10^–5 Molar; read-out: Percent growth inhibition
Method: as §1, §2, §3

[17] = tested on: UACC-62; assay: NCI-60 SRB screen; type: cell-based; details: Homo sapiens; UACC-62, 10^–5 Molar; read-out: Percent growth inhibition
Method: as §1, §2, §3

[18] = tested on: UO-31; assay: NCI-60 SRB screen; type: cell-based; details: Homo sapiens; UO-31, 10^–5 Molar; read-out: Percent growth inhibition
Method: as §1, §2, §3

[19] = tested on: 60 human cancer cell lines; assay: NCI-60 SRB screen, whole panel; type: cell-based; details: Homo sapiens, 48 h; One Dose Mean Graph, Conc 1.00E-5 Molar; read-out: Mean Growth Percent
[20] = tested on: leukemia SR cells; assay: Cell cycle analysis, PI flow cytometry; type: cell-based, human; parameters: increase of cells at pre-G1 phase vs control: concentration or dose not given beside the values
Method: The cells were washed twice using Ice-cold phosphate buffer saline (PBS). • Centrifugation was used to collect the cells, then the cells were fixed in 70% (v/v) ethanol, washed with PBS and re-suspended with 0.10 mg/mL RNase. • After that, cells were stained with […] propidium iodide (PI) and evaluated by flow cytometry using FACSCalibur (Becton Dickinson).

[21] = target: T1, topoisomerase IIα (Homo sapiens, UniProt P11388); assay: Topoisomerase ELISA kit inhibitory assay; type: biochemical; details: four concentrations
T1 construct: purchased MBS2885049
T1 sequence (P11388 whole entry): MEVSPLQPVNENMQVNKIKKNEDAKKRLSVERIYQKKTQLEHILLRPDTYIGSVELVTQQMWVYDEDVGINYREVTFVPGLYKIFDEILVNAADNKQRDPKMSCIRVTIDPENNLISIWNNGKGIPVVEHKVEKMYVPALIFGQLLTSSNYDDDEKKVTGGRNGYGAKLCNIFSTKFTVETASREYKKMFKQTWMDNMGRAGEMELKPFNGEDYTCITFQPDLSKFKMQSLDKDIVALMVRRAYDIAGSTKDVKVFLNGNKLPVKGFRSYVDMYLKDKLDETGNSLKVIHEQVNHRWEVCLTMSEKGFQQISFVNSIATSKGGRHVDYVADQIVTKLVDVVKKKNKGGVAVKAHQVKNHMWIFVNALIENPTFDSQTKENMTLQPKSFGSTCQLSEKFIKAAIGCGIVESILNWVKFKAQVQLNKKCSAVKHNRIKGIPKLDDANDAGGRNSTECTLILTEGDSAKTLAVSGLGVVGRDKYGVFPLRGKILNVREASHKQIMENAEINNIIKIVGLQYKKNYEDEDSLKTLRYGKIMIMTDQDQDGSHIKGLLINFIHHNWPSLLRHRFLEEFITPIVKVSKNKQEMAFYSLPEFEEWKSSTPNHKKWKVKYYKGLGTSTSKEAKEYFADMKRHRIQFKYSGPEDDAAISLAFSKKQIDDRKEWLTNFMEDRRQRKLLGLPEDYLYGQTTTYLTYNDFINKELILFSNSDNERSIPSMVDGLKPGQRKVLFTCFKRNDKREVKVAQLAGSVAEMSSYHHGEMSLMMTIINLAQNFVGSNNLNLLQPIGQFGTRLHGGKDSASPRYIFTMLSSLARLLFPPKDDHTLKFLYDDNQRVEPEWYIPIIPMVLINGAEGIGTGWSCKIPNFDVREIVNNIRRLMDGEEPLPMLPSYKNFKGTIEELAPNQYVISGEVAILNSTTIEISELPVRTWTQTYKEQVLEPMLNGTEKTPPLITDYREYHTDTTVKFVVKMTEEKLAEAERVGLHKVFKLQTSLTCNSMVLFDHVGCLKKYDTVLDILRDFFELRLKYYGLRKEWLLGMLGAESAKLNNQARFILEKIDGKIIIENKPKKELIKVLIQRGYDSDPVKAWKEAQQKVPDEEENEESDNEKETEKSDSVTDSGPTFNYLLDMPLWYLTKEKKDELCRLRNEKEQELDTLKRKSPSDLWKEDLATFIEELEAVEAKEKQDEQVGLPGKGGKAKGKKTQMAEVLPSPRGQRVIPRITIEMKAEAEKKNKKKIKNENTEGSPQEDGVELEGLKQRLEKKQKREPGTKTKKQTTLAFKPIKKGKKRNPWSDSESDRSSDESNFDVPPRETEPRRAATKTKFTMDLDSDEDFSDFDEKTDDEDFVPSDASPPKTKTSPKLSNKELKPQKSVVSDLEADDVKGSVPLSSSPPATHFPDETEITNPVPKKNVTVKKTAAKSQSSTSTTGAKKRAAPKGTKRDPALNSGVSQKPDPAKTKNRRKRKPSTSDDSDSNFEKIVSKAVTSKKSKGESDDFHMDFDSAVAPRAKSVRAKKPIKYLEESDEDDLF
Method: Four concentrations were used and IC50 was calculated.
Compound 3a,b,c,e were evaluated for topoisomerase IIα inhibitory activity utilizing the human DNA topoisomerase ELISA kit (MBS2885049) and following the provided procedure: • Standards and the tested compound were dissolved in sample diluent and tenfold serial dilution was achieved. • Biotin-conjugated antibody and avidin conjugated Horseradish Peroxidase (HRP-avidin) were diluted to tenfolds. • 100 µL of each concentration of standard or test compounds were added to each well and incubated at 37 °C for 1 h. • Removal of the liquid in each well was done. • To each well 100 µL of Biotin-conjugated antibody solution was added followed by incubation for 1 h at 37 °C. • The microtiter plate was allowed to aspirate and washed 3 times. • 100 µL of avidin conjugated Horseradish Peroxidase (HRP-avidin) solution was added to each well and incubatation for 1 h at 37 °C was achieved. • The plate was aspirated and washed 5 times. • Addition of 90 µL of 3,3′,5,5′-tetramethylbenzidine (TMB) substrate to each well followed by plate incubated for 30 min at 37 °C and protection from light was done. • 50 µL stop solution was added.

[22] = tested on: leukemia SR cells; assay: Apoptosis, Annexin-V-FITC/PI; details: 3e at 1.90 µM, 24 h
[23] = target: Topoisomerase II; parameters: method as in PMID 10051540, PMID 8824299, PMID 9651360; details: Topoisomerase II catalytic inhibitor, Fig. 1; cited from earlier work
[24] = tested on: SMMC7721 cancer cell lines; parameters: method as in PMID 22301863; details: SMMC7721, Fig. 2; cited from earlier work
[25] = tested on: MCF-7 cancer cell lines; parameters: method as in PMID 22301863; details: MCF-7, Fig. 2; cited from earlier work
[26] = tested on: HCT-8 cancer cell lines; parameters: method as in PMID 22301863; details: HCT-8, Fig. 2; cited from earlier work

**Q.** What does the source list for `CCn1cc(C(=O)O)c(=O)c2cc(F)c(N3CCN(CC(=O)Nc4ccc(S(N)(=O)=O)cc4)C(C)C3)c(F)c21` (stereo not shown) [Compound 5d, 1-Ethyl-6,8-difluoro-7-(3-methyl-4-(2-oxo-2-((4-sulfamoylphenyl)amino)ethyl)piperazin-1-yl)-4-oxo-1,4-dihydroquinoline-3-carboxylic acid]?
**A.** inhibition at 10 µM [1]: 0.7%; inhibition at 10 µM [2]: 3.88%; inhibition at 10 µM [3]: 0.41%; inhibition at 10 µM [4]: 4.12%; inhibition at 10 µM [5]: 5.22%; inhibition at 10 µM [6]: 0.31%; inhibition at 10 µM [7]: 1.15%; inhibition at 10 µM [8]: 6.33%; inhibition at 10 µM [9]: 0.27%; inhibition at 10 µM [10]: 3.58%; inhibition at 10 µM [11]: 1.64%; inhibition at 10 µM [12]: 0.93%; inhibition at 10 µM [13]: 2.33%; inhibition at 10 µM [14]: 3.07%; inhibition at 10 µM [15]: 11.9%; inhibition at 10 µM [16]: 0.37%; inhibition at 10 µM [17]: 9.32%; inhibition at 10 µM [18]: 12.9%; activity at 10 µM [19]: 103%; melting point: 228 to 230 °C

**Q.** For `COc1cccc2c1C(=O)c1c(O)c3c(c(O)c1C2=O)C[C@@](O)(C(=O)CO)C[C@@H]3O[C@H]1C[C@H](N)[C@H](O)[C@H](C)O1` [Doxorubicin, reference compound], which “increase of cells at pre-G1 phase vs control” value [20] is on record?
**A.** 8.62 folds

**Q.** And the “%G0-G1” value ([20]; 3e at 1.90 µM, 24 h)?
**A.** 25.18%

**Q.** What about the “%G2-M” value ([20]; 3e at 1.90 µM, 24 h) of the same molecule?
**A.** 46.06%

**Q.** What about the “%Pre-G1” value ([20]; 3e at 1.90 µM, 24 h) of the same molecule?
**A.** 22.17%

**Q.** And the “%S” value ([20]; 3e at 1.90 µM, 24 h)?
**A.** 28.76%

**Q.** And the IC50 [21]?
**A.** 0.61 µM

**Q.** What about the “Apoptosis %Early” value [22] of the same molecule?
**A.** 5.88%

**Q.** What about the “Apoptosis %Late” value [22] of the same molecule?
**A.** 12.21%

**Q.** And the “Apoptosis %Total” value [22]?
**A.** 22.17%

**Q.** What about the Necrosis [22] of the same molecule?
**A.** 4.08%

**Q.** With `O=C1NC(=S)NC(=O)C1C(=O)Nc1ccccc1` [Merbarone] as the molecule, how does the IC50 [23] read?
**A.** 20 µM

**Q.** With `O=C(N/N=C/c1ccc2c(c1)OCO2)c1cn(C2CC2)c2cc(N3CCNCC3)c(F)cc2c1=O` [QNT4] as the molecule, how does the IC50 [24] read?
**A.** 2.96 µM

**Q.** What about the IC50 [25] of the same molecule?
**A.** 3.71 µM

**Q.** What about the IC50 [26] of the same molecule?
**A.** 3.69 µM
